Data published in patent US10111863B2 (CYDEX PHARMACEUTICALS, INC., priority 2009, dated 2018).
Structures can show the parent of a compound that is named as a salt. Where two headings read alike, the source gives them in different places.

Legend:
[1] = cited from earlier work
[2] = Stability of prasugrel in 30% w/v SBE6.5-β-CD or HP4.3-β-CD at pH 4 (HPLC); type: physicochemical
[3] = Phase solubility of prasugrel in aqueous SBE6.5-β-CD at pH 7.4; type: physicochemical; details: for solubility: aqueous solution, pH 7.4, aqueous with cosolvent or surfactant or cyclodextrin, thermodynamic from solid, Prasugrel Solubility
Text: The results of the phase solubility study at pH 7.4 are also depicted graphically in FIG. 2.

[4] = Stability of prasugrel in 30% w/v SBE6.5-β-CD at pH 3, 4 and 6 (HPLC); type: physicochemical; details: for decrease in prasugrel concentration: 30% w/v SBE6.5-β-CD
Description: The solutions were sampled at 0, 2, 7 and 53 hours. […] The data obtained from the stability study is provided graphically in FIG. 5.

[5] = Phase solubility of prasugrel in aqueous SBE6.5-β-CD or HP4.3-β-CD at pH 4; type: physicochemical; details: for solubility: thermodynamic from solid
Text: The results of the phase solubility study at pH 4 are also depicted graphically in FIG. 3. […] Note that the data obtained for the 10% w/v cyclodextrin derivatives was not included in the best-fit line that appears in FIG. 3.

platelet = details: healthy subjects; cited from earlier work
platelet aggregation = details: after treatment is stopped; cited from earlier work

## CC(=O)Oc1cc2c(s1)CCN(C(C(=O)C1CC1)c1ccccc1F)C2 (racemic) [Prasugrel hydrochloride]
[1]
  pKa value: 5.1
[1]; pH 1-4
  solubility: soluble to slightly soluble
[1]; pH 5
  solubility: very slightly soluble
[1]; pH 6-7
  solubility: practically insoluble

## CC(=O)Oc1cc2c(s1)CCN(C(C(=O)C1CC1)c1ccccc1F)C2 (racemic) [Prasugrel, 5-[(1RS)-2-cyclopropyl-1-(2-fluorophenyl)-2-oxoethyl]-4,5,6,7-tetrahydrothieno[3,2-c]pyridin-2-yl acetate]
[2]
  stability in aqueous solution containing a sulfoalkyl ether-β-cyclodextrin versus pH: more stable at pH 4 or less
[2]; 30% w/v solutions, pH 4, 0.1 M phosphate buffer, FIG. 6
  stability in SBE6.5-β-CD versus HP4.3-β-CD: nearly identical stability
[3]; SBE6.5-β-CD 5% w/v
  Prasugrel Solubility: 0.0054% w/v
  solubility: 54 µg/mL
[3]; SBE6.5-β-CD 10% w/v
  Prasugrel Solubility: 0.0124% w/v
  solubility: 124 µg/mL
[3]; SBE6.5-β-CD 20% w/v
  Prasugrel Solubility: 0.0252% w/v
  solubility: 252 µg/mL
[3]; SBE6.5-β-CD 30% w/v
  Prasugrel Solubility: 0.0379% w/v
  solubility: 379 µg/mL
[3]; SBE6.5-β-CD, FIG. 2
  prasugrel solubility as a function of the derivatized cyclodextrin concentration: increased linearly
[3]; SBE6.5-β-CD 40% w/v
  solubility: 515 µg/mL
[4]; pH 3, 0.1 M phosphate buffer, after 30 hours
  decrease in prasugrel concentration: less than 10%
[4]; pH 3, 0.1 M phosphate buffer, after about 55 hours
  decrease in prasugrel concentration: less than 20%
[4]; pH 4, 0.1 M phosphate buffer, after 30 hours
  decrease in prasugrel concentration: less than 10%
[4]; pH 4, 0.1 M phosphate buffer, after about 55 hours
  decrease in prasugrel concentration: less than 20%
[4]; pH 6, 0.1 M phosphate buffer, after 30 hours
  decrease in prasugrel concentration: about 20%
[4]; pH 6, 0.1 M phosphate buffer, after about 55 hours
  decrease in prasugrel concentration: about 36%
[4]; pH 3, 4 and 6 compared
  stability in aqueous solution containing a sulfoalkyl ether-β-cyclodextrin versus pH: more stable at pH 4 or less
[5]; aqueous HP4.3-β-CD solution, pH 4, aqueous with cosolvent or surfactant or cyclodextrin, Prasugrel Solubility w/ HP4.3-β-CD, HP4.3-β-CD 30% w/v
  solubility: 645 µg/mL
[5]; aqueous SBE6.5-β-CD solution, pH 4, aqueous with cosolvent or surfactant or cyclodextrin, Prasugrel Solubility w/ SBE6.5-β-CD, SBE6.5-β-CD 30% w/v
  solubility: 664 µg/mL
[5]; aqueous solution, pH 4, aqueous buffer, Prasugrel Solubility w/ HP4.3-β-CD, cyclodextrin derivative 0% w/v
  solubility: 206 µg/mL
[5]; aqueous solution, pH 4, aqueous buffer, Prasugrel Solubility w/ SBE6.5-β-CD, cyclodextrin derivative 0% w/v
  solubility: 206 µg/mL
[5]; aqueous solution, pH 4, aqueous with cosolvent or surfactant or cyclodextrin, Prasugrel Solubility w/ HP4.3-β-CD, HP4.3-β-CD 5% w/v
  solubility: 256 µg/mL
[5]; aqueous solution, pH 4, aqueous with cosolvent or surfactant or cyclodextrin, Prasugrel Solubility w/ HP4.3-β-CD, HP4.3-β-CD 10% w/v
  solubility: 474 µg/mL
[5]; aqueous solution, pH 4, aqueous with cosolvent or surfactant or cyclodextrin, Prasugrel Solubility w/ HP4.3-β-CD, HP4.3-β-CD 20% w/v
  solubility: 524 µg/mL
[5]; aqueous solution, pH 4, aqueous with cosolvent or surfactant or cyclodextrin, Prasugrel Solubility w/ HP4.3-β-CD, HP4.3-β-CD 40% w/v
  solubility: 875 µg/mL
[5]; aqueous solution, pH 4, aqueous with cosolvent or surfactant or cyclodextrin, Prasugrel Solubility w/ SBE6.5-β-CD, SBE6.5-β-CD 5% w/v
  solubility: 268 µg/mL
[5]; aqueous solution, pH 4, aqueous with cosolvent or surfactant or cyclodextrin, Prasugrel Solubility w/ SBE6.5-β-CD, SBE6.5-β-CD 10% w/v
  solubility: 736 µg/mL
[5]; aqueous solution, pH 4, aqueous with cosolvent or surfactant or cyclodextrin, Prasugrel Solubility w/ SBE6.5-β-CD, SBE6.5-β-CD 20% w/v
  solubility: 580 µg/mL
[5]; aqueous solution, pH 4, aqueous with cosolvent or surfactant or cyclodextrin, Prasugrel Solubility w/ SBE6.5-β-CD, SBE6.5-β-CD 40% w/v
  solubility: 927 µg/mL
[5]; both HP4.3-β-CD and SBE6.5-β-CD, FIG. 3
  prasugrel solubility as a function of the derivatized cyclodextrin concentration: increased linearly
platelet
  platelet inhibition and response compared to clopidogrel: greater platelet inhibition and more consistent response
Platelet aggregation
  time to return to baseline levels of platelet aggregation: 7 to 10 days
